According to PMC4102782, “Dual Aurora A and JAK2 kinase blockade effectively suppresses malignant transformation” (Oncotarget, 2014):

Key:
Aurora A = molecular target: T1, Aurora A (Homo sapiens, UniProt O14965); assay: HotSpot kinase assay (Reaction Biology), Aurora A; assay type: biochemical; settings: in vitro, HotSpot method
T1 construct: purchased Reaction Biology Inc
T1 sequence (O14965 1-403): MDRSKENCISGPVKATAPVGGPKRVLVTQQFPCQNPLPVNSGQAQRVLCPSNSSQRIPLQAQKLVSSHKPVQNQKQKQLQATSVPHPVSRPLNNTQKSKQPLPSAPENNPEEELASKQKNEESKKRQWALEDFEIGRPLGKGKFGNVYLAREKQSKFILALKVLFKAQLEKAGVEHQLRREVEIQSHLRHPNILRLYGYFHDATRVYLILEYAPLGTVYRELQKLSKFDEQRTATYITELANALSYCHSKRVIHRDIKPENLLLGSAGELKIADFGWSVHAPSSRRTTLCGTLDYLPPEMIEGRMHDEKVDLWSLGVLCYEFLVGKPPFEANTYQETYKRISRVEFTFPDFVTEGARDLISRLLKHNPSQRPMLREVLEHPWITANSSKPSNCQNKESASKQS

Aurora B = molecular target: T2, Aurora B (Homo sapiens, UniProt Q96GD4); assay: HotSpot kinase assay (Reaction Biology), Aurora B; assay type: biochemical; settings: in vitro, HotSpot method
T2 construct: purchased Reaction Biology Inc

JAK2 = molecular target: T3, JAK2 (Homo sapiens, UniProt O60674); assay: HotSpot kinase assay (Reaction Biology), JAK2; assay type: biochemical; settings: in vitro, HotSpot method
T3 construct: purchased Reaction Biology Inc

MDA-MB-468 cells [1] = assay: Anchorage-dependent proliferation, MTT assay, MDA-MB-468; assay type: cell-based; settings: Homo sapiens, 48 h; for IC50: MDA-MB-468, MTT
Experimental: (§1) Cells were cultured in 96 well plates at a density of 2,000 cells/ well. The cells with siRNA transfection or with the inhibitor treatment were monitored for viability using MTT at indicated time points. At the given time points, MTT reagent was added to the media and allowed to incubate for 3 h at 37° C in a humidified incubator at 5% CO2. The medium was then removed and MTT crystals were dissolved in DMSO (Sigma). Cell viability was quantified by reading the plates at an absorbance of 540 nm on a μQuant microplate reader using KC4 data analysis software (Bio-Tek Instruments). The 540 nm absorbance of vehicle-treated wells was used to define 100% proliferation. Each condition was performed in replicates of six wells.

MDA-MB-468 cells [2] = assay: Soft agar anchorage-independent growth, MDA-MB-468; assay type: cell-based, human
Experimental: For analysis of anchorage-independent growth, log-phase growing cells were trypsinized, and triplicates of 1.5 × 10^3 cells per well were seeded in regular growth medium containing 0.3% agar (Sigma) and drug added at the indicated concentrations, as previously described. The cells were allowed to incubate at 37° C for 3 weeks and fed once per week with the inhibitor before 1 mg/ml MTT (Sigma) solution was added overnight to facilitate colony counting. Colonies were scored and counted according to size, as previously described.

MDA-MB-468 cells [3] = assay: Matrigel Transwell invasion, MDA-MB-468; assay type: cell-based, human
Experimental: Cells were transfected with Aurora A and JAK2 for 48 h or with siRNA for 72 h or treated with the compounds for 24 h and then were trypsinized and resuspended in serum-free medium and placed in the upper chamber of the Matrigel-coated (0.8 μg/μL, BD Biosciences, San Diego, CA) Transwell insert (from 2 to 5 × 10^4 cells/well) and with 0.5% DMSO or the compounds at the indicated dose. Medium containing 10%FBS was placed in the lower chamber. […] Invading cells in the membrane were fixed with 100% methanol and stained with fresh prepared 0.2% crystal violet. Noninvasive cells in the upper chamber were removed by wiping the upper side of the membrane with a cotton swab, and cells located on the underside of the filter were observed and photographed under Olympus stereo microscope. The number of invading cells was counted using Image-Pro analysis software.

[4] = tested on: P-Histone H3 (Ser-10), Aurora B substrate; assay: Western blot, phosphorylation of Histone H3 in MDA-MB-468 cells; assay type: cell-based, human; settings: for effect on phosphorylation of Histone H3 (Ser-10): MDA-MB-468, increasing concentrations, 2 h
Experimental: (§2) Cells were plated in 6 cm dishes at a density of 2 × 10^5 cells/dish. Aurora A activity was determined by measuring autophosphorylation of Aurora A on Thr288 in cells that were synchronized by treatment with nocodazole (100 ng/mL) for 20 h prior to the treatment with Aurora inhibitors, whereas Aurora B activity was determined by measuring phosphorylation of histone H3 on Ser-10 (p-HH3). […] Cells were harvested after 2 h of treatment and processed for SDS−PAGE and Western blotting.
(§3) Cells were harvested from experiments of ectopic expression or knockdown using siRNA or the treatment with the inhibitors, washed, and then lysed using lysis buffer as previously described. The protein concentration of the lysate was measured, and the lysate was mixed with gel electrophoresis loading buffer, boiled for 5 minutes, separated by SDS-PAGE, and transferred to nitrocellulose membranes.

[5] = tested on: P-STAT3 (Y705), JAK2 substrate; assay: Western blot, phosphorylation of STAT3 in MDA-MB-468 cells; assay type: cell-based, human
Experimental: as §2, §3

[6] = tested on: MDA-MB-468 tumor xenografts; assay: MDA-MB-468 tumor xenografts in nude mice; assay type: in vivo; settings: 50 mpk i.p. daily for 14 days
Experimental: (§4) Female nude mice (Charles River Laboratories, Wilmington, MA) were maintained and treated in accordance with the Institutional Animal Care and Use Committee procedures and guidelines. Exponentially growing MDA-MB-468 cells were harvested via trypsinization, pelleted at 400 g for 5 min. Cell pellets were re-suspended in DPBS (Invitrogen) at 10 x10^6 cells per 200 μl, and injected into right flank of mice. The tumor xenografts were monitored with an electronic caliper measurements and tumor volume (V) was calculated using the formula V= (W × L^2)/2, where width is the largest diameter and length is the smallest diameter. When the tumors reached ~ 250 mm^3, the animals were randomized and treatment schedules were implemented. Treatments consisted of intraperitoneal (i.p.) injections of vehicle control (50% polyethylene glycol (PG) + 15% 2-hydroxypropyl-beta-cyclodextrin (HPCD) (n=5) or AJI-100 (n=6) at 50 mg/kg, everyday for 14 days.

[7] = Mouse weights during xenograft study; assay type: in vivo, nude mice; settings: 50 mpk i.p. daily, over the 14-day treatment period; vehicle 3.33 %
Experimental: as §4

HT29 cells = assay: Anchorage-dependent proliferation, MTT assay, HT29; assay type: cell-based; settings: Homo sapiens
Experimental: as §1

HT-29 cells [8] = assay: Soft agar anchorage-independent growth, HT-29; assay type: cell-based, human; settings: HT-29, Alisertib 2 μM
Experimental: The cells were allowed to incubate at 37° C for 3 weeks and fed once per week with the inhibitor before 1 mg/ml MTT (Sigma) solution was added overnight to facilitate colony counting. Colonies were scored and counted according to size, as previously described.

HT-29 cells [9] = assay: Matrigel Transwell invasion, HT-29; assay type: cell-based, human; settings: HT-29, Alisertib 4 μM
Text: Medium containing 10%FBS was placed in the lower chamber. […] Invading cells in the membrane were fixed with 100% methanol and stained with fresh prepared 0.2% crystal violet. Noninvasive cells in the upper chamber were removed by wiping the upper side of the membrane with a cotton swab, and cells located on the underside of the filter were observed and photographed under Olympus stereo microscope. The number of invading cells was counted using Image-Pro analysis software.

[10] = tested on: Aurora A auto-phosphorylation (Thr-288); assay: Western blot, Aurora A auto-phosphorylation in nocodazole-synchronized MDA-MB-468 cells; assay type: cell-based, human; settings: MDA-MB-468, nocodazole-synchronized, 2 h
Experimental: as §2, §3

P-Histone H3 = assay: Western blot, phosphorylation of Histone H3 in HT-29 cells; assay type: cell-based, human; settings: HT-29, Alisertib 2 μM
Experimental: as §2, §3

P-STAT3 = assay: Western blot, phosphorylation of STAT3 in HT-29 cells; assay type: cell-based, human; settings: HT-29, Alisertib 2 μM
Experimental: as §2, §3

[11] = tested on: PARP cleavage and Caspase 3 activation in MDA-MB-468 cells; assay: Apoptosis by Western blot of PARP cleavage and Caspase 3 activation, MDA-MB-468; assay type: cell-based, human; settings: MDA-MB-468, single agent, low concentration, e.g. Alisertib 0.03 μM
Experimental: Cells were harvested from experiments of ectopic expression or knockdown using siRNA or the treatment with the inhibitors, washed, and then lysed using lysis buffer as previously described. The protein concentration of the lysate was measured, and the lysate was mixed with gel electrophoresis loading buffer, boiled for 5 minutes, separated by SDS-PAGE, and transferred to nitrocellulose membranes. […] To evaluate the effect of inhibitors on cell cycle progression, cells were treated with inhibitors at indicated dose or DMSO control and then harvested, fixed with 70% ethanol pretreated with RNase, and stained with propidium iodide (PI) (Sigma) as previously described for flow cytometry analysis. For the detection of apoptosis, cells were cultured for 24 h in medium with inhibitors at indicated dose or DMSO control and harvested for SDS-PAGE and Western blotting. The siRNA or drug treatment-induced apoptosis was detected by Western blot analysis of the cleavage of PARP and caspase-3.

[12] = Homo sapiens, MDA-MB-468, Alisertib 0.5 μM

T3 sequence (O60674 whole entry): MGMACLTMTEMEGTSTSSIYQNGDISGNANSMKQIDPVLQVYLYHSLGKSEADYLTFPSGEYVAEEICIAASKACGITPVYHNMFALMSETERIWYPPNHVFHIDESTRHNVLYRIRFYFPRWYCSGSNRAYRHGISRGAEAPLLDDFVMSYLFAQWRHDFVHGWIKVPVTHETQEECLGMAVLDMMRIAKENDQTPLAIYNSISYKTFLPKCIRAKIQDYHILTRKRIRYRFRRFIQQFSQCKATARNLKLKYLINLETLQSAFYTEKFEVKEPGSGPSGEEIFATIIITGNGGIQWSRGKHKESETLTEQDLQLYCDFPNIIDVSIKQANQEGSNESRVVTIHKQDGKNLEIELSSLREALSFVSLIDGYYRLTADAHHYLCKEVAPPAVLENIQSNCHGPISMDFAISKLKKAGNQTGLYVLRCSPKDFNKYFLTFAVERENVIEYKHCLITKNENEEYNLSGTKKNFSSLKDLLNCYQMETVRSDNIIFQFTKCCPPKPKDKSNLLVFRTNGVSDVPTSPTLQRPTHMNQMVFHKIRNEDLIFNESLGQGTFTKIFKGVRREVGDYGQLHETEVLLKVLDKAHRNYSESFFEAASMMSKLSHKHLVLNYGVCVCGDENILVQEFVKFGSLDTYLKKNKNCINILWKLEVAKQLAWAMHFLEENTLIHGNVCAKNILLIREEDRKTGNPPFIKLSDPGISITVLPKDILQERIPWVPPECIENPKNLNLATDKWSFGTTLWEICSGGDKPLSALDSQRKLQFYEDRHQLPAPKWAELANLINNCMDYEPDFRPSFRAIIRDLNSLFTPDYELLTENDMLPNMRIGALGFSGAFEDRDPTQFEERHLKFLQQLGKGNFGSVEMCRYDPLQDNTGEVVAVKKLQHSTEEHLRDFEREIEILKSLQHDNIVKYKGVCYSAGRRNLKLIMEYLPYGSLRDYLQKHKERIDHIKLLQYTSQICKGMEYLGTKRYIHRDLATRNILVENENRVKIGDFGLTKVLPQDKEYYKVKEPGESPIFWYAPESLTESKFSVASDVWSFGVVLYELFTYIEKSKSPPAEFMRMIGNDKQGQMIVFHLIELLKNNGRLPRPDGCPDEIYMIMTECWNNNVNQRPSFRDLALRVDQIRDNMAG
T2 sequence (Q96GD4 whole entry): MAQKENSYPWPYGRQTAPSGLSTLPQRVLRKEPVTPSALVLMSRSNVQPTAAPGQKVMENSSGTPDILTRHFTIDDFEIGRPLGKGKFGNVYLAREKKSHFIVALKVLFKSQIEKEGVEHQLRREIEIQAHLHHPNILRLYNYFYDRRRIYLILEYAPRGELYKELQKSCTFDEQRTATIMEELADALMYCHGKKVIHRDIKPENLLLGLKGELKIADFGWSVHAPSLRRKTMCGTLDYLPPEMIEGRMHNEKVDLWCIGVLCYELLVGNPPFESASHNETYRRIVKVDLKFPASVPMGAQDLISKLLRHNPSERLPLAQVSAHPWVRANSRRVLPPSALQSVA

## NC(=O)c1ccc(Nc2ncc(F)c(Nc3ccccc3)n2)cc1 [AJI-100]
Aurora A
  IC50: 5.4 nM
Aurora B
  IC50: 14 nM
JAK2
  IC50: 51 nM
MDA-MB-468 cells [1]
  IC50: 3600 nM
MDA-MB-468 cells [2]; MDA-MB-468, increasing concentrations
  colony formation in soft agar: inhibited colony formation
MDA-MB-468 cells [3]; Homo sapiens, MDA-MB-468, 5 μM, 48 hr
  inhibition at 5 µM: 41.1%
MDA-MB-468 cells [3]; Homo sapiens, MDA-MB-468, 5 μM, 72 hr
  inhibition at 5 µM: 89.8%
MDA-MB-468 cells [3]; MDA-MB-468, 5 μM, 48 hr, vehicle 723
  invaded cells: 426 cells
MDA-MB-468 cells [3]; MDA-MB-468, 5 μM, 72 hr, vehicle 1020
  invaded cells: 104 cells
[4]
  effect on phosphorylation of Histone H3 (Ser-10): decreased
[5]; MDA-MB-468, increasing concentrations, 2 h
  effect on phosphorylation of STAT3 (Y705): decreased
[6]; regressed from 222, vehicle grew 211 to 357
  tumor volume after 14 day treatment, representative mouse: 158 mm3
[6]; vehicle grew by 40 %
  average % change in tumor volume (regression): 9%
[7]
  increase in mouse weights: 0.04%

## COc1cc(Nc2ncc3c(n2)-c2ccc(Cl)cc2C(c2c(F)cccc2OC)=NC3)ccc1C(=O)O [Alisertib]
MDA-MB-468 cells [1]; MDA-MB-468, Alisertib 0.05 μM
  inhibition at 0.05 µM: 25.4%
MDA-MB-468 cells [1]
  IC50: 70 nM
HT29 cells; HT-29, 48 h, read-out: inhibition of proliferation
  inhibition at 0.05 µM: 5%
HT29 cells; HT-29, HT29, MTT, 48 h
  IC50: 2000 nM
MDA-MB-468 cells [2]; [12]
  inhibition at 0.5 µM: 49%
MDA-MB-468 cells [2]; MDA-MB-468, Alisertib 0.5 μM, vehicle 131
  soft agar colonies: 67 colonies
HT-29 cells [8]; vehicle 129
  soft agar colonies: 56 colonies
HT-29 cells [8]; Homo sapiens, read-out: inhibition of soft agar colonies
  inhibition at 2 µM: 56.6%
MDA-MB-468 cells [3]; [12]
  inhibition at 0.5 µM: 24.5%
MDA-MB-468 cells [3]; MDA-MB-468, Alisertib 0.5 μM, vehicle 344
  invaded cells: 260 cells
HT-29 cells [9]; vehicle 1066
  invaded cells: 384 cells
HT-29 cells [9]; Homo sapiens
  inhibition at 4 µM: 64%
[10]
  effect on auto-phosphorylation of Aurora A: highly effective at inhibiting
[4]; MDA-MB-468, Alisertib 0.5 μM
  effect on P-Histone H3: inhibited P-Histone H3
[4]
  effect on phosphorylation of Histone H3 (Ser-10): highly effective at inhibiting
[5]; MDA-MB-468, Alisertib 0.5 μM
  effect on P-STAT3: not P-STAT3
P-Histone H3
  effect on P-Histone H3: inhibited P-Histone H3
P-STAT3
  effect on P-STAT3: not P-STAT3
[11]
  PARP cleavage: neither Alisertib nor Ruxolitinib induced PARP cleavage
